{
  "source": "patent US20150368195A1",
  "about": "“INDOLINE COMPOUNDS FOR TREATMENT AND/OR PREVENTION OF INFLAMMATION DISEASES” (Taipei Medical University, priority 2014, published 2015)",
  "key": {"[1]": {"system": "inducible nitric oxide synthase (iNOS)", "assay": "LPS-induced iNOS protein expression, Western blot, RAW264.7", "assay_type": "cell-based, Mouse", "conditions": "RAW264.7, 0.1-10 μM, LPS 25 ng/mL 24 h", "procedure": "(§1) Then the cells were harvested and whole cell extracts were prepared for Western blot analysis for iNOS and COX-2. The relative protein expressions are presented as mean±SEM for four replicates. *p<0.05 compared to the LPS-treated group."}, "[2]": {"system": "tumor necrosis factor-α (TNF-α)", "assay": "LPS-induced TNF-α production in RAW 264.7 macrophages", "conditions": "Mus musculus, RAW264.7, read-out: IC50 TNF-α"}, "interleukin-6 (IL-6)": {"system": "interleukin-6 (IL-6)", "assay": "LPS-induced IL-6 production in RAW 264.7 macrophages", "conditions": "Mus musculus, RAW264.7, read-out: IC50 IL-6"}, "NFATc1": {"system": "NFATc1", "assay": "RANKL-induced NFATc1 luciferase reporter in RAW264.7 cells", "assay_type": "cell-based, Mouse", "conditions": "5 nM MPT0G009; RANKL 24 h", "procedure": "(§2) Cells were then tartrate resistant acid phosphatase (TRAP) stained, and the numbers of TRAP-positive multinuclear cells were counted. […] Images are at ×100 magnification, and the arrows indicate differentiated osteoclasts. (FIG. 6C) RAW264.7 cells were treated as in (FIG. 6B), then incubated with a fluorescein isothiocyanate (FITC)-conjugated anti-CD51/61 antibody and analyzed by flow cytometry. (FIGS. 6D and 6E) RAW264.7 cells (1×10^5) were transfected with 1 μg of pGL4.32[luc2P/NF-κB-RE/Hygro] (FIG. 6D) or pGL4.30[luc2P/NFAT-RE/Hygro] (FIG. 6E) for 24 h and then incubated for 30 min with or without MPT0G009 (5 nM). Then RANKL (50 ng/mL) was added and incubation was continued for an additional 24 h, after which luciferase activity was determined. Results in (FIGS. 6A, 6D, and 6E) are the means±SEM's for three independent experiments. **p<0.01 compared with the indicated controls.\nWe also assessed the effect of MTPOG009 on the DNA-binding activity of NF-kB and NFATc1, two pivotal transcriptional factors involved in RANKL-induced pathways for promoting osteoclast differentiation. When RAW264.7 cells that had been transiently transfected with reporter plasmids were treated with 5 nM MPT0G009 for 30 min before and during 24-h stimulation with RANKL, MPT0G009 inhibited RANKL-induced NF-kB (FIG. 6d) and NFATc1 (FIG. 6e) luciferase activity."}, "histone H3 (Acetyl-H3)": {"system": "histone H3 (Acetyl-H3)", "assay": "histone H3 acetylation, Western blot, RA-FLS", "assay_type": "cell-based", "conditions": "1 μM MPT0G009 or 30 μM SAHA; 6, 12, 24 h; starting at 12 h", "procedure": "Then cells were harvested and cell lysates were prepared for Western blot analysis of the indicated proteins. (FIG. 5C) RA-FLS were incubated for 1 h with or without the proteasome inhibitor, MG132 (1 μM). […] Results shown are representative of three independent experiments.\nThis was a proteasome-dependent effect because it was reduced by pretreatment with the proteasome inhibitor, MG132 (1 μM; FIG. 5c)."}, "cyclooxygenase-2 (COX-2)": {"system": "cyclooxygenase-2 (COX-2)", "assay": "LPS-induced COX-2 protein expression, Western blot, RAW264.7", "assay_type": "cell-based, Mouse", "conditions": "RAW264.7, 0.1-10 μM, LPS 25 ng/mL 24 h", "procedure": "as §1"}, "RAW264.7 macrophages": {"system": "RAW264.7 macrophages", "assay": "M-CSF/RANKL-induced osteoclast formation", "assay_type": "cell-based, Mouse", "conditions": "5 nM MPT0G009 or 50 nM SAHA; M-CSF/RANKL 50 ng/mL, 5 days", "procedure": "as §2\nBone destruction is one characteristic of RA pathogenesis, resulting in joint dysfunction. Differentiation of mouse macrophages osteoclast-like cells can be induced in the presence of M-CSF and RANKL, which has been used as a model to investigate osteoclast differentiation. […] Subsequently, multinucleate tartrate resistant acid phosphatase (TRAP)-positive cells were counted."}},
  "note": "Entries after “also recorded” stand apart in the source; their conditions may differ.",
  "data": [
    {"smiles": "COc1ccc(S(=O)(=O)N2CCc3cc(C=CC(=O)NO)ccc32)cc1", "note": "[Compound 9, 3-[1-(4-methoxybenzenesulfonyl)-2,3-dihydro-1H-indol-5-yl]-N-Hydroxyacrylamide]", "values": [
      {"measurement": "iNOS protein expression", "setting": "[1]", "value": "concentration-dependently inhibitory effects"},
      {"measurement": "iNOS protein expression", "setting": "[1]; listed as compound 9", "value": "significantly inhibited"},
      {"measurement": "IC50", "setting": "[2]", "value": 520, "unit": "nM"},
      {"measurement": "IC50", "setting": "interleukin-6 (IL-6)", "value": 10, "unit": "nM"},
      {"measurement": "RANKL-induced NFATc1 luciferase activity", "setting": "NFATc1", "value": "inhibited"},
      {"measurement": "acetylation of histone H3 in RA-FLS", "setting": "histone H3 (Acetyl-H3)", "value": "significant hyperacetylation of histone H3"},
      {"measurement": "COX-2 protein expression", "setting": "cyclooxygenase-2 (COX-2)", "value": "concentration-dependently inhibitory effects"},
      {"measurement": "COX-2 protein expression", "setting": "cyclooxygenase-2 (COX-2); listed as compound 9", "value": "significantly inhibited"},
      {"measurement": "expression of osteoclast-specific marker CD51/61", "setting": "RAW264.7 macrophages", "value": "significantly inhibited"},
      {"measurement": "formation of M-CSF/RANKL-induced TRAP-positive cells", "setting": "RAW264.7 macrophages", "value": "significantly inhibited; also recorded: inhibits"}
    ]}
  ]
}
